According to patent US20200276187A1, “SYSTEMS AND METHODS FOR A[…]-INDUCED EUPHORIA” (Purdue Pharma L.P., priority 2014, published 2020):

Tested on: rats
Experiment: Conditioned Place Preference (CPP) animal model of opioid-induced euphoria
Conditions: subcutaneous, 6 conditioning days of 30 min sessions, preference assessed on day 8, time in drug-paired minus vehicle-paired chamber
Experimental: It was administered in a volume of 2 ml/kg. […] The oxycodone was administered as the hydrochloride salt form and was dissolved in saline. The subcutaneous volume for each was 2 ml/kg.
For this Example, a 6 day unbiased, counterbalanced paradigm was employed. Innate preference was tested on day 1 (preconditioning day or baseline). On this day, naïve animals (rats) had free access to all three compartments for 30 minutes. The time spent in each chamber was automatically recorded. For conditioning sessions (days 2-7), animals were randomly assigned to compartment pairings for thirty minutes. During the first conditioning session (day 2), animals were randomly divided. […] Control animals received vehicle plus vehicle during each pairing. This conditioning procedure was replicated over five more days (thirty minute sessions for 6 total conditioning days). On day 8, preference was assessed. Each animal was allowed to roam freely about all three compartments for 30 minutes. The removable doors remained opened. The time spent in each compartment was automatically recorded. Conditioned Place Preference (“CPP”) (seconds) is represented as the difference between the time spent in the drug-paired and vehicle-paired chambers on the test day and is indicative of the rewarding properties associated with the compound(s) studied.

## COc1ccc2c3c1O[C@H]1C(=O)CC[C@@]4(O)[C@@H](C2)N(C)CC[C@]314 [oxycodone]
  Conditioned Place Preference (CPP) as compared to vehicle treated controls: produces a statistically significant CPP
